Assay results taken from US7267718B2, “Pullulan film compositions” (Warner-Lambert Company, LLC, priority 2000, dated 2007).

Test: Pullulan film gliding performance, slanted plane test (smallest gliding angle of film-coated glass plates)
Type: physicochemical
Settings: smaller angle = better
Method: […] The mixture is heated to 70° C. under stirring for complete solubilisation and then the stirring is reduced for defoaming. The solution then is used to cast on glass plates of 4 mm thickness to form pullulan films of about 100 μm thickness after drying at room conditions. The pullulan film gliding performance is evaluated by a test on a slanted plan, a method commonly used by gelatine producers. The method determines the smallest angle of inclination of glass plate to provoke the gliding of a film coated glass plate over another one with films face to face. Consequently, the smaller the gliding angle, the better the film gliding performance.

[1] = surfactant 500 ppm/pullulan, cast pullulan film about 100 μm with kappa-carrageenan and potassium acetate
[2] = surfactant 1000 ppm, cast pullulan film about 100 μm

Row | Molecule | Pullulan gliding performance (°) [1] [°] | Pullulan gliding performance (°) [2] [°] | Pullulan gliding performance (°) (surfactant 5000 ppm, cast pullulan film about 100 μm)
1 | Sorbitan oleate | 9 | 7 | –
2 | Sorbitan laurate | 10 | 8 | –
3 | Polysorbate 20 | 12 | 12 | –

Second part, the molecule after the results:

Row | Pullulan gliding performance (°) [1] [°] | Pullulan gliding performance (°) [2] [°] | Pullulan gliding performance (°) (surfactant 5000 ppm, cast pullulan film about 100 μm) | Molecule
4 | 9 | 5 | 6 | CCCCCCCCCCCCOS(=O)(=O)[O-].[Na+] [SLS, sodium lauryl sulphate]
5 | 10 | 9 | – | Polysorbate 80
